Laboratory results: publication PMC10610545, “Preclinical Evaluation of an Imidazole-Linked Heterocycle for Alzheimer’s Disease” (Pharmaceutics, 2023)

Assays:
[1] = tested on: glial cells: BV2 (microglia), C6 (astroglia), primary microglial and astroglial cultures; assay: LPS-induced nitrite production in glial cultures (Griess); type: cell-based, mouse, rat; conditions: LPS 10 μg/mL, 24 h, ligands at 1 μM
Method: PD has been described in the same way. Therefore, we based our in vitro model of neuroinflammation on the use of two established glial cell lines, C6 and BV2, as well as primary glial cultures derived from the mouse cerebral cortex. […] When attaining semiconfluence, glial cells were seeded on 96-well plates at 3 × 10^4/well and incubated for 24 h before treatment. Primary astrocytes and microglia were obtained and cultured following a previously described protocol. In brief, the cerebral cortex was dissected, dissociated, and incubated with 0.25% trypsin and EDTA at 37 °C for 1 h. The tissue was then centrifuged, and the resulting pellet was washed with Hanks’ balanced salt solution (Invitrogen). The cells were plated on non-coated flasks and incubated under standard conditions for a minimum of 7 days. Subsequently, each type of glial cell was isolated to obtain pure cultures. To achieve this, the glial cells in the culture flasks were agitated on an orbital shaker for 4 h at 240 rpm and 37 °C. […]
To determine the inflammatory state, glial cells subcultured in 96-well plates were exposed to lipopolysaccharide (LPS, 10 μg/mL, Sigma). […] After 24 h in culture, nitrite production was evaluated.
Following the designated treatments, 100 μL of the cell culture supernatant was mixed with an equal volume of Griess reagent (consisting of 1% sulfanylamide and 0.1% naphthyl ethylene diamine in 5% phosphoric acid, sourced from Sigma-Aldrich, Madrid, Spain) at room temperature for 15 min. […] The absorbance of the mixture was measured at 492/540 nm using a microplate reader from Thermofisher (Madrid, Spain). […]
Figure 5 Role of I2-IR ligands in an in vitro model of neuroinflammation. Nitrite production in the supernatant of glial cells was assessed using the Griess reaction after a 24 h exposure to lipopolysaccharide (LPS, 10 μg/mL) in the presence of the indicated I2-IR ligands at a concentration of 1 μM. […]

[2] = tested on: human dopaminergic cell line SH-SY5Y; assay: Cytotoxicity of compounds alone, MTT assay, SH-SY5Y; type: cell-based; conditions: 24 h, escalating concentrations
Method: (§1) In the study of neurotoxicity associated with AD, the HT22 mouse hippocampal neuronal cell line has been recognized as an effective cell model. HT22 cells were purchased from Merck-Sigma-Aldrich (SCC12, Madrid, Spain) and cultured in DMEM-F12 (Gibco, Fisher Scientific, Madrid, Spain) supplemented with foetal bovine serum (FBS, 10%) and 1% penicillin/streptomycin under standard conditions (37 °C, 5% CO2). The human dopaminergic cell line SH-SY5Y, in turn, has been widely used as an in vitro model to study the pathogenesis of PD associated with dopaminergic degeneration. Cells, acquired from the American Type Culture Collection (ATCC, Rockville, MD, USA, Ref.CRL-2266), were grown in RPMI medium (Gibco) supplemented with glutamine (2 mM), 10% FBS, and 1% penicillin/streptomycin under standard conditions. Semiconfluent cells (90%) were seeded on 96-well plates at 3 × 10^4 per well and incubated for 24 h before treatment.
(§2) Neuronal cultures, HT-22 and SH-SY5Y, seeded on 96-well plates were treated with LSL33, LSL34, and LSL60101 for 24 h, and viability was assessed using the MTT assay. […] Then, cultures were treated for 1h with LSL33 at 2 μM and LSL34 and LSL60101 at 1 μM. This dose was chosen based on previous studies. Subsequently, HT-22 cultures were exposed to glutamate (10 mM, Merck-Sigma), while SH-SY5Y cultures received 6-hydroxydopamine (6-OHDA, 35 μM, Merck-Sigma). The cells were then incubated for a minimum of 16 h. Finally, the cellular viability and nitrite production of the cultures were assessed.
The assessment of cell viability was conducted using the 3-(4,5-dimethylthiazol-2-yl)-5-(3-carboxymethoxyphenyl)-2-(4-sulfophenyl)-2H-tetrazolium (MTT) assay, following the instructions provided by the manufacturer (Roche Diagnostic, Darmstadt, Germany). […] The absorbance of the solution was measured at 595–650 nm using a spectrophotometer. The experiments were performed at least three times, and the results were expressed as a percentage of the control. […]

[3] = tested on: SH-SY5Y dopaminergic neurons; assay: 6-OHDA-induced damage in SH-SY5Y cells (MTT viability, Griess nitrite); type: cell-based, human; conditions: 35 μM 6-OHDA; for neuroprotection (cell viability, MTT): 1 h pretreatment, LSL33 2 μM, LSL34 and LSL60101 1 μM; for nitrite production: culture supernatant
Method: as §1, §2
(§3) The assessment of cell viability was conducted using the 3-(4,5-dimethylthiazol-2-yl)-5-(3-carboxymethoxyphenyl)-2-(4-sulfophenyl)-2H-tetrazolium (MTT) assay, following the instructions provided by the manufacturer (Roche Diagnostic, Darmstadt, Germany). Briefly, after exposure to glutamate or 6-OHDA, the cell culture medium was replaced with 100 μL of fresh culture medium containing MTT solution (0.5 mg/mL) and incubated for 1 h. The medium was then removed, and the resulting formazan crystals were dissolved in dimethylsulfoxide (DMSO, Merck-Sigma). The absorbance of the solution was measured at 595–650 nm using a spectrophotometer. The experiments were performed at least three times, and the results were expressed as a percentage of the control.
(§4) Following the designated treatments, 100 μL of the cell culture supernatant was mixed with an equal volume of Griess reagent (consisting of 1% sulfanylamide and 0.1% naphthyl ethylene diamine in 5% phosphoric acid, sourced from Sigma-Aldrich, Madrid, Spain) at room temperature for 15 min. To determine the nitrite concentrations, a standard solution of sodium nitrite was employed. The absorbance of the mixture was measured at 492/540 nm using a microplate reader from Thermofisher (Madrid, Spain). The experiments were repeated a minimum of three times.
(§5) Figure 4 In vitro screening of I2-IR ligands: Assessment of neuroprotective and anti-inflammatory effects HT-22 cells exposed to 10mM glutamate for at least 16 h Similarly, SH-SY5Y was damaged with 35 μM 6-OHDA (35 μM). Some cultures were pretreated with the I2-IR ligands. Cell viability was evaluated using the MTT assay, and nitrite production in the cell supernatant was quantified using the Griess reaction. The reported values represent the mean ± SD obtained from triplicate determinations repeated at least three times. Statistical analysis was performed: * p ≤ 0.05, ** p ≤ 0.01, *** p ≤ 0.001 (versus glutamate- or 6-OHDA-treated cultures); ^# p ≤ 0.05, ^### p ≤ 0.001 (versus idazoxan-treated cultures); ^& p ≤ 0.1, ^&&& p ≤ 0.001 (versus 2-BFI-treated cultures).

HT-22 hippocampal cells = assay: Glutamate-induced damage in HT-22 cells (MTT viability, Griess nitrite); type: cell-based, mouse; conditions: HT-22, 10 mM glutamate; for neuroprotection (cell viability, MTT): 1 h pretreatment, LSL33 2 μM, LSL34 and LSL60101 1 μM; for nitrite production: culture supernatant
Method: as §1, §2, §3, §4, §5

Cl.c1ccc2sc(-c3ncc[nH]3)cc2c1 [LSL33, 2-(Benzo[b]thiophene-2-yl)-1H-imidazole hydrochloride]
nitrite levels [1]: notable reduction in nitrite levels
cytotoxicity (MTT viability) [2]: None of the compounds tested were cytotoxic
neuroprotection (cell viability, MTT) [3]: potent neuroprotective effects
nitrite production [3]: significant attenuation of the increased nitrite production
neuroprotection (cell viability, MTT) (HT-22 hippocampal cells): potent neuroprotective effects
nitrite production (HT-22 hippocampal cells): significant attenuation of the increased nitrite production

Cl.c1ccc2oc(-n3ccnc3)cc2c1 [LSL34, 1-(Benzofuran-2-yl)-1H-imidazole hydrochloride]
nitrite levels [1]: notable reduction in nitrite levels
cytotoxicity (MTT viability) [2]: None of the compounds tested were cytotoxic
neuroprotection (cell viability, MTT) [3]: potent neuroprotective effects
nitrite production [3]: significant attenuation of the increased nitrite production
neuroprotection (cell viability, MTT) (HT-22 hippocampal cells): potent neuroprotective effects
nitrite production (HT-22 hippocampal cells): significant attenuation of the increased nitrite production

c1ccc2oc(-c3ncc[nH]3)cc2c1 [LSL60101, reference compound]
nitrite levels [1]: notable reduction in nitrite levels
cytotoxicity (MTT viability) [2]: None of the compounds tested were cytotoxic
neuroprotection (cell viability, MTT) [3]: potent neuroprotective effects
nitrite production [3]: significant attenuation of the increased nitrite production
neuroprotection (cell viability, MTT) (HT-22 hippocampal cells): potent neuroprotective effects
nitrite production (HT-22 hippocampal cells): significant attenuation of the increased nitrite production
